Experiments:
D(2) dopamine receptor = D(2) dopamine receptor (Homo sapiens, UniProt P14416); experiment: Displacement of [3H]-spiperone from human dopamine D2S receptor expressed in HEK293 cell membranes
D(3) dopamine receptor = D(3) dopamine receptor (Homo sapiens, UniProt P35462); experiment: Displacement of [3H]-spiperone from human dopamine D3 receptor expressed in CHO cell membranes
[1] = biological target: T1, Alpha-1A adrenergic receptor (Homo sapiens, UniProt P35348); experiment: Displacement of [3H]-prazosin from human ADRA1A receptor
T1 sequence (P35348 whole entry): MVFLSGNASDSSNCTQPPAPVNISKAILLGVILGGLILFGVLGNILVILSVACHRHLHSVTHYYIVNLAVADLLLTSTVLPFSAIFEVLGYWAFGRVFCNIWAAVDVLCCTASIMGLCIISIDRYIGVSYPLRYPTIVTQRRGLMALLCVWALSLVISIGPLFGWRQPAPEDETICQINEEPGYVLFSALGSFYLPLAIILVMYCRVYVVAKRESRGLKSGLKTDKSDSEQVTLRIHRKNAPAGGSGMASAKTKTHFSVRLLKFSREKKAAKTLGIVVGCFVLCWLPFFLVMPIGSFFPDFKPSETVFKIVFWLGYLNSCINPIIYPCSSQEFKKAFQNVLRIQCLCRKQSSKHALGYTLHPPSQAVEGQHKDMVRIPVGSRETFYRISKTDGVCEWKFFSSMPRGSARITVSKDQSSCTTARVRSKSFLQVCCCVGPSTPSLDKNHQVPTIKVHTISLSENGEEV

Homo sapiens [2] = species on record: Homo sapiens; experiment: Selectivity ratio of Ki for human dopamine D2S receptor to Ki for human dopamine D3 receptor
Homo sapiens [3] = species on record: Homo sapiens; experiment: Selectivity ratio of Ki for human ADRA1A receptor to Ki for human dopamine D3 receptor
hERG (KCNH2) = hERG (KCNH2) (Homo sapiens, UniProt Q12809); experiment: Inhibition of dofetilide binding to human ERG at 1 uM; conditions: probe dofetilide
Sequence of hERG (KCNH2) (Q12809 whole entry): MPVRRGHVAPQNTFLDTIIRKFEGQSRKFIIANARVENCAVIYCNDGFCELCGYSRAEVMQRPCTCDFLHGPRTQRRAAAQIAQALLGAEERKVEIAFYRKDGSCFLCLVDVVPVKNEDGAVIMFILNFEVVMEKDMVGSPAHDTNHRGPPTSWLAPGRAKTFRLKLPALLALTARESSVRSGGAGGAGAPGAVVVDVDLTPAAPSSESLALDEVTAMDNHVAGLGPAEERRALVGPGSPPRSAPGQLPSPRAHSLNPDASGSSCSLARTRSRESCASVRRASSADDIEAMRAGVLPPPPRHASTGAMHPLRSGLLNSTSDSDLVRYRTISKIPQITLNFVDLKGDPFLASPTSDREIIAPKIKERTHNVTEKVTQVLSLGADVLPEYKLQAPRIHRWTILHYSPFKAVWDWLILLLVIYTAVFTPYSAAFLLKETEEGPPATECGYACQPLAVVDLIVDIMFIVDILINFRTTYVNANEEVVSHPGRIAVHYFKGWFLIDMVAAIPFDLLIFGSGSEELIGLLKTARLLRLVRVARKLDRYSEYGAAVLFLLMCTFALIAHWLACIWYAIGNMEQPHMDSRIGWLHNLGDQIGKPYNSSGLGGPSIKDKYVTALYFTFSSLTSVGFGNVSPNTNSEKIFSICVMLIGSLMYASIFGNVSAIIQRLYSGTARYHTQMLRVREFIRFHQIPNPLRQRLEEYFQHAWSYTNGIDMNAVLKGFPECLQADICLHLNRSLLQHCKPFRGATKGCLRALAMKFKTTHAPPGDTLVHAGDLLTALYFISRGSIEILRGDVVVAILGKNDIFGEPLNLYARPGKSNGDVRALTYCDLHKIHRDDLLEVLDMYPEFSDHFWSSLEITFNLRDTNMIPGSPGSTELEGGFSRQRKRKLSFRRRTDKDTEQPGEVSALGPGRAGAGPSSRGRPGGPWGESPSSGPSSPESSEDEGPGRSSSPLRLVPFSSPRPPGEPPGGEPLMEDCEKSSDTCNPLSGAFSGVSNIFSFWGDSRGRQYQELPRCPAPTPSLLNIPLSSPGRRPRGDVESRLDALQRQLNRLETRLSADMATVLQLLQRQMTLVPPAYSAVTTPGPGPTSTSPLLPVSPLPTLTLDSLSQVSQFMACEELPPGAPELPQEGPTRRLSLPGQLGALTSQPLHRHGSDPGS

Sequence of D(3) dopamine receptor (P35462 whole entry): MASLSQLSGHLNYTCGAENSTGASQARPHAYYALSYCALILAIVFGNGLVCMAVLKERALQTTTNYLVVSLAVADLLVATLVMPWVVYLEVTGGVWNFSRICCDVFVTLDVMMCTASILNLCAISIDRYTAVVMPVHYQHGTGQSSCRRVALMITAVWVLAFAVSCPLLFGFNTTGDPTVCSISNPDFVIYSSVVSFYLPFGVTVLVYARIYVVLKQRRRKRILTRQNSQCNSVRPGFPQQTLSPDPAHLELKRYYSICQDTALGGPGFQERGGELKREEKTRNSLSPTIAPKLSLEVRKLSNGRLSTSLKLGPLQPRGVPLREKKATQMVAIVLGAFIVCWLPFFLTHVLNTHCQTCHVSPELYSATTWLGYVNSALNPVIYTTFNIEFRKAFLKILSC
Sequence of D(2) dopamine receptor (P14416 whole entry): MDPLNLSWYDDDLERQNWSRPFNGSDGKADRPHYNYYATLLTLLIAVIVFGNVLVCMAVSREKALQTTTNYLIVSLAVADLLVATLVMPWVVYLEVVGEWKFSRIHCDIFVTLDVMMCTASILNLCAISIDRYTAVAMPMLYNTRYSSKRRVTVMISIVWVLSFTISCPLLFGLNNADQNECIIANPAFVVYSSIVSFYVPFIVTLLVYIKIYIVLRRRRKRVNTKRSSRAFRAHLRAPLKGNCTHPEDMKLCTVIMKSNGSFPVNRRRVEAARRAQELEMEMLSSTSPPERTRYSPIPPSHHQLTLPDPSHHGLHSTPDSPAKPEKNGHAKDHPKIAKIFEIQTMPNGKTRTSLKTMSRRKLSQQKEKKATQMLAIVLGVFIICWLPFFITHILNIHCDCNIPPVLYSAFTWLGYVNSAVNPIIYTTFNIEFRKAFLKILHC

Compound	Ki (D(2) dopamine receptor; read-out: Ki) [nM]	Ki (D(3) dopamine receptor) [nM]	Ki [1] [nM]	Ratio Ki (Homo sapiens [2])	Ratio Ki (Homo sapiens [3])	Ki (D(2) dopamine receptor; hek293)	inhibition at 1 µM (hERG (KCNH2)) [%]
CS(=O)(=O)Nc1cccc(N2CCN(CCCCNC(=O)c3ccc4ccccc4c3)CC2)c1	55	1.6	160	34	100		
COc1ccccc1N1CCN(CCCCNC(=O)CC2CCCCC2)CC1	322	2	65.5	161	33		
COc1ccccc1N1CCN(CCCCNC(=O)CC(C)C)CC1		123	418		3	Not Active	
COc1ccccc1N1CCN(CCCCNC(=O)Nc2cccc(Cl)c2)CC1	13	1.3	5	10	4		
COc1ccccc1N1CCN(CCCCNC(=O)N2CCOCC2)CC1	482	1.8	81	270	45		
O=C(NCCCCN1CCN(c2cccc3[nH]c(=O)[nH]c23)CC1)c1ccc2ccccc2c1	131	3.5	158	37	45		
CCOC(=O)Nc1cccc(N2CCN(CCCCNC(=O)c3ccc4ccccc4c3)CC2)c1	911	3.9	1030	234	264		
O=C1Cc2c(cccc2N2CCN(CCCCNC(=O)c3ccc4ccccc4c3)CC2)N1	52	0.5	211	100	420		
COc1ccccc1N1CCN(CCCCCOc2ccc3ccccc3c2)CC1	34	87	10.3	0.4	0.1		
COc1ccccc1N1CCN(CCCCNC(=O)N(C)c2ccccc2)CC1	1550	12	116	130	10		
O=C(NCCCCN1CCN(c2cccc(C(F)(F)F)c2)CC1)c1ccc2ccccc2c1	1550	1.1	283	1400	260		51
COc1ccccc1N1CCN(CCCCNC(=O)C2CCCCC2)CC1	168	0.9	963	190	1070		82

Continued, in another order:

Ki (D(2) dopamine receptor; read-out: Ki) [nM]	Ki (D(3) dopamine receptor) [nM]	Ki [1] [nM]	Ratio Ki (Homo sapiens [2])	Ratio Ki (Homo sapiens [3])	Ki (D(2) dopamine receptor; hek293)	Compound	inhibition at 1 µM (hERG (KCNH2)) [%]
3320	4.7	50.2	700	11		O=C(NCCCCN1CCN(c2cccc(Cl)c2)CC1)c1ccc2ccccc2c1	
404	0.73	29.9	550	41		Cc1ccccc1N1CCN(CCCCNC(=O)c2ccc3ccccc3c2)CC1	
373	0.2	1520	1900	7600		O=C(NCCCCN1CCN(c2cccc(O)c2)CC1)c1ccc2ccccc2c1	30
12100	10.4	166	1170	16		O=C(NCCCCN1CCN(c2ccc(Cl)cc2)CC1)c1ccc2ccccc2c1	
238	0.7	29.9	340	43		O=C(NCCCCN1CCN(c2ccccc2Cl)CC1)c1ccc2ccccc2c1	
95	1.3	19	73	15		O=C(NCCCCN1CCN(c2cccc3[nH]ccc23)CC1)c1ccc2ccccc2c1	
5030	12.7	46.7	400	3.7		O=C(NCCCCN1CCN(c2ccccc2O)CC1)c1ccc2ccccc2c1	
	1.08	104				O=C(NCCCCN1CCN(c2cccc(Cl)c2Cl)CC1)c1ccc2ccccc2c1	
302	1.33	230	230	170		Cc1cccc(N2CCN(CCCCNC(=O)c3ccc4ccccc4c3)CC2)c1C	
310	1.23	38.5	250	31		O=C(NCCCCN1CCN(c2ccccc2F)CC1)c1ccc2ccccc2c1	

Reference: ChEMBL document CHEMBL3758127, “Improving selectivity of dopamine D3 receptor ligands” (Bioorg Med Chem Lett, 2016)
